“And” between values parts separate entries of the source, which are not always exact repeats. Equal values may be shown once. Read-outs that look alike come from different tables or passages of the source.
Experiments:
[1] = system: MCF-7; conditions: for anti-proliferative activity category: MCF-7, in words; for IC50: human
[2] = system: MCF-7; experiment: cells; conditions: Homo sapiens, MCF7, 24 h, read-out: In vitro cytotoxicity IC50 (mean ± SD) MCF-7
[3] = target: EGFR TK enzyme (Homo sapiens, UniProt P00533); experiment: biochemical; conditions: EGFR IC50 (mean ± SD), ATP 1.65 μM, 30 min, room temperature
Sequence of EGFR TK enzyme (P00533 25-1210): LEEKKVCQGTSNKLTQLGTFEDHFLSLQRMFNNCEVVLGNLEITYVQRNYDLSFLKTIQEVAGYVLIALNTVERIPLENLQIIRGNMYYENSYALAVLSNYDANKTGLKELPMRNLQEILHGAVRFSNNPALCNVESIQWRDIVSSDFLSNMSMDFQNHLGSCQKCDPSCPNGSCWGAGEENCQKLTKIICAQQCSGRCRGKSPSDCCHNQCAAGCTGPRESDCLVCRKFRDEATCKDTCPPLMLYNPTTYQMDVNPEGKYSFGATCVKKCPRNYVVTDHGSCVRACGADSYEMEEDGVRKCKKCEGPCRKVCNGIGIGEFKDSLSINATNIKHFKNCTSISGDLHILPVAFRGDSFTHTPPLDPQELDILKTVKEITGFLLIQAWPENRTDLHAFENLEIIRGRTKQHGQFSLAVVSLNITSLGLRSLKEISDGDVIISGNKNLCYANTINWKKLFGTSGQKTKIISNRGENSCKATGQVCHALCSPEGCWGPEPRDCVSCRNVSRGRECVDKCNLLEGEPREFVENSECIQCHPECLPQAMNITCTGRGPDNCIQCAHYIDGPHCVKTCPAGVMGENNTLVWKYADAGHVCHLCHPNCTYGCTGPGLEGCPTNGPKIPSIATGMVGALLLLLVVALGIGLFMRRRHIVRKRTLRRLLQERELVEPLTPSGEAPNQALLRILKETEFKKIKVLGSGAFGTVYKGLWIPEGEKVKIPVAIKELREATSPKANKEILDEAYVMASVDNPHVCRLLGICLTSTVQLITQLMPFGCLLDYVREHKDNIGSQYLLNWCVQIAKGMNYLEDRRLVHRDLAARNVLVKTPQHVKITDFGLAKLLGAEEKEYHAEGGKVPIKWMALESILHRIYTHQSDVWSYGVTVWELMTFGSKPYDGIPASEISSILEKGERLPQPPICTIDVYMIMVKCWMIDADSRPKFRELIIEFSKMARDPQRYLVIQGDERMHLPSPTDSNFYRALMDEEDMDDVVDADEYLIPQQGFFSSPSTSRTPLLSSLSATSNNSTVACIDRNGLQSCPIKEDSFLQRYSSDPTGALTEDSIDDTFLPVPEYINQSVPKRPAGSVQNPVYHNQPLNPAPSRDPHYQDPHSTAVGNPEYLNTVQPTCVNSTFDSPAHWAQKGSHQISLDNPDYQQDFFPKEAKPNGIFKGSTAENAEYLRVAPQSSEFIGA

Row | IC50 [1] [µM] | IC50 [3] | Structure (SMILES) | anti-proliferative activity category [1] | IC50 [2] [µM]
1 | 37.7 ± 2.4 | 650 ± 20 nM | CCNC(c1ccccc1)c1c(N)[nH]c(=O)[nH]c1=O (stereo not shown) [10b, 6-Amino-5-((ethylamino)(phenyl)methyl)pyrimidine-2,4(1H,3H)-dione] | moderate activity | 31.8 ± 2
2 |  | 990 ± 30 nM | CCCCNC(c1ccccc1)c1c(N)[nH]c(=O)[nH]c1=O (stereo not shown) [10c, 6-Amino-5-((butylamino)(phenyl)methyl)pyrimidine-2,4(1H,3H)-dione] | high anti-proliferative activity | 7.6 ± 0.5
3 | 31.8 ± 2 | 900 nM and 880 nM | Nc1cc(N2C(=O)c3ccccc3C2=O)nc(SCC(=O)NN=Cc2ccc(Cl)cc2)n1 [6c, 2-((4-Amino-6-(1,3-dioxoisoindolin-2-yl)pyrimidin-2-yl)thio)-N′-(4-chlorobenzylidene)acetohydrazide] | moderate activity | 37.7 ± 3.6
4 |  | 4600 ± 110 nM | CNC(c1ccccc1)c1c(N)[nH]c(=O)[nH]c1=O (stereo not shown) [10a, 6-Amino-5-((methylamino)(phenyl)methyl)pyrimidine-2,4(1H,3H)-dione] |  | 8.6 ± 0.7
5 |  |  | O=C1CCC(N2C(=O)c3ccccc3C2=O)C(=O)N1 (stereo not shown) [Thalidomide, reference compound] |  | 13.4 ± 0.5
6 |  |  | Nc1cc(N2C(=O)c3ccccc3C2=O)nc(SCC(=O)NN=Cc2cccc([N+](=O)[O-])c2)n1 [6a, 2-((4-Amino-6-(1,3-dioxoisoindolin-2-yl)pyrimidin-2-yl)thio)-N′-(3-nitrobenzylidene)acetohydrazide] | lowest anti-proliferative activity | 62 ± 3.3
7 |  |  | Nc1cc(N2C(=O)c3ccccc3C2=O)nc(SCC(=O)NN=Cc2ccc([N+](=O)[O-])cc2)n1 [6b, 2-((4-Amino-6-(1,3-dioxoisoindolin-2-yl)pyrimidin-2-yl)thio)-N′-(4-nitrobenzylidene)acetohydrazide] | moderate activity | 48.4 ± 2.8
8 |  |  | COc1ccc(C=NNC(=O)CSc2nc(N)cc(N3C(=O)c4ccccc4C3=O)n2)cc1OC [6g, 2-((4-Amino-6-(1,3-dioxoisoindolin-2-yl)pyrimidin-2-yl)thio)-N′-(3,4-dimethoxy-benzylidene)acetohydrazide] | moderate activity | 19.6 ± 1.5
9 | 14.2 ± 1.2 |  | CN(C)C(c1ccccc1)c1c(N)[nH]c(=O)[nH]c1=O (stereo not shown) [10d, 6-Amino-5-((dimethylamino)(phenyl)methyl)pyrimidine-2,4(1H,3H)-dione] | high anti-proliferative activity | 8.6 ± 0.7
10 |  |  | Nc1cc(N2C(=O)c3ccccc3C2=O)nc(SCC(=O)NN=Cc2ccc(O)cc2)n1 [6e, 2-((4-Amino-6-(1,3-dioxoisoindolin-2-yl)pyrimidin-2-yl)thio)-N′-(4-hydroxybenzylidene)acetohydrazide] | lowest anti-proliferative activity | 75.4 ± 3.7

From article PMC12498222 (RSC Advances, 2025)
